Results as given in US6737383B1, “Herbicidal oxadiazolidines” (priority 1999, dated 2004).

Columns and labels:
bedstraw = test: Test B pre/postemergence bedstraw; format: in vivo, Galium aparine; settings: for Bedstraw plant response rating: 10 is complete control
Outline: (§1)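 Response is a visual 0-to-10 score relative to untreated plants, where 0 means no effect and 10 means complete control, taken twelve to sixteen days after application. Treatments went onto soil at planting and onto foliage of 1- to 4-leaf plants, using a surfactant-containing non-phytotoxic solvent.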

blackgrass = test: Test B pre/postemergence blackgrass; format: in vivo, Alopecurus myosuroides
Outline: as §1

surinam grass = test: Test B pre/postemergence surinam grass; format: in vivo, Brachiaria decumbens
Outline: as §1

cocklebur = test: Test B pre/postemergence cocklebur; format: in vivo, Xanthium strumarium
Outline: as §1

corn = test: Test B pre/postemergence corn; format: in vivo, Zea mays
Outline: as §1

crabgrass = test: Test B pre/postemergence crabgrass; format: in vivo, Digitaria sanguinalis
Outline: as §1

giant foxtail = test: Test B pre/postemergence giant foxtail; format: in vivo, Setaria faberii
Outline: as §1

morningglory = test: Test B pre/postemergence morningglory; format: in vivo, Ipomoea hederacea
Outline: as §1

pigweed = test: Test B pre/postemergence pigweed; format: in vivo, Amaranthus retroflexus
Outline: as §1

rape = test: Test B pre/postemergence rape; format: in vivo, Brassica napus
Outline: as §1

soybean = test: Test B pre/postemergence soybean; format: in vivo, Glycine max
Outline: as §1

sugar beet = test: Test B pre/postemergence sugar beet; format: in vivo, Beta vulgaris
Outline: as §1

velvetleaf = test: Test B pre/postemergence velvetleaf; format: in vivo, Abutilon theophrasti
Outline: as §1

wheat = test: Test B pre/postemergence wheat; format: in vivo, Triticum aestivum
Outline: as §1

wild oat = test: Test B pre/postemergence wild oat; format: in vivo, Avena fatua
Outline: as §1

purple nutsedge = test: Test B pre/postemergence purple nutsedge; format: in vivo, Cyperus rotundus
Outline: as §1

[1] = Preemergence, Rate 62 g/ha, scale of 0 to 10 where 0 is no effect and 10 is complete control
[2] = Postemergence, Rate 62 g/ha, scale of 0 to 10, 0 is no effect, 10 is complete control
[3] = Postemergence, Rate 125 g/ha, scale 0 to 10, 0 is no effect, 10 is complete control
[4] = Postemergence, Rate 500 g/ha, scale 0 to 10, 0 is no effect, 10 is complete control
[5] = Preemergence, Rate 125 g/ha, scale 0 to 10, 0 is no effect, 10 is complete control
[6] = Preemergence, Rate 500 g/ha, scale of 0 to 10 where 0 is no effect and 10 is complete control
[7] = Rate 250 g/ha, Postemergence, scale of 0 to 10 where 0 is no effect and 10 is complete control

## CCC=CCn1c(=O)on(C(=O)N(c2ccc(F)cc2F)C(C)C)c1=O [Compound 523]
bedstraw; Postemergence, Rate 62 g/ha, scale of 0 to 10, 0 is no effect
  Bedstraw plant response rating: 0
bedstraw; Postemergence, Rate 125 g/ha, scale 0 to 10, 0 is no effect
  Bedstraw plant response rating: 0
bedstraw; [1]
  Plant response rating, Bedstraw: 0
bedstraw; Preemergence, Rate 125 g/ha, scale 0 to 10, 0 is no effect
  Bedstraw plant response rating: 0
bedstraw; Preemergence, Rate 250 g/ha
  Bedstraw plant response rating (0 to 10 scale): 0
bedstraw; Preemergence, Rate 500 g/ha, scale 0 to 10, 0 is no effect
  Bedstraw plant response rating: 0
blackgrass; [2]
  Blackgrass plant response rating: 0
blackgrass; [3]
  Blackgrass plant response rating: 0
blackgrass; [4]
  Plant response rating, Blackgrass: 4
blackgrass; [1]
  Plant response rating, Blackgrass: 2
blackgrass; [5]
  Blackgrass plant response rating: 4
blackgrass; Preemergence, Rate 250 g/ha
  Blackgrass plant response rating (0 to 10 scale): 7
blackgrass; [6]
  Blackgrass plant response rating: 7
blackgrass; [7]
  Plant response rating, Blackgrass: 3
Surinam grass; [2]
  B. signalgrass plant response rating: 0
Surinam grass; [3]
  B. signalgrass plant response rating: 0
Surinam grass; [4]
  Plant response rating, B. signalgrass: 7
Surinam grass; [1]
  Plant response rating, B. signalgrass: 4
Surinam grass; [5]
  B. signalgrass plant response rating: 8
Surinam grass; Preemergence, Rate 250 g/ha
  B. signalgrass plant response rating (0 to 10 scale, 0 is no effect, 10 is complete control): 9
Surinam grass; Preemergence, Rate 500 g/ha, scale 0 to 10, 0 is no effect, 10 is complete control
  B. signalgrass plant response rating: 5
Surinam grass; [7]
  Plant response rating, B. signalgrass: 2
cocklebur; [2]
  Cocklebur plant response rating: 0
cocklebur; [3]
  Cocklebur plant response rating: 2
cocklebur; [4]
  Plant response rating, Cocklebur: 2
cocklebur; [1]
  Plant response rating, Cocklebur: 0
cocklebur; [5]
  Cocklebur plant response rating: 0
cocklebur; Preemergence, Rate 250 g/ha
  Cocklebur plant response rating (0 to 10 scale): 0
cocklebur; [6]
  Cocklebur plant response rating: 0
cocklebur; [7]
  Plant response rating, Cocklebur: 2
corn; [2]
  Corn plant response rating: 0
corn; [3]
  Corn plant response rating: 0
corn; [4]
  Plant response rating, Corn: 2
corn; [1]
  Plant response rating, Corn: 0
corn; [5]
  Corn plant response rating: 0
corn; Preemergence, Rate 250 g/ha
  Corn plant response rating (0 to 10 scale): 0
corn; [6]
  Corn plant response rating: 9
corn; [7]
  Plant response rating, Corn: 2
crabgrass; [2]
  Crabgrass plant response rating: 3
crabgrass; [3]
  Crabgrass plant response rating: 8
crabgrass; [4]
  Plant response rating, Crabgrass: 10
crabgrass; [1]
  Plant response rating, Crabgrass: 9
crabgrass; [5]
  Crabgrass plant response rating: 10
crabgrass; Preemergence, Rate 250 g/ha
  Crabgrass plant response rating (0 to 10 scale): 10
crabgrass; [6]
  Crabgrass plant response rating: 10
crabgrass; [7]
  Plant response rating, Crabgrass: 6
Giant foxtail; [2]
  Giant foxtail plant response rating: 2
Giant foxtail; [3]
  Giant foxtail plant response rating: 2
Giant foxtail; [4]
  Plant response rating, Giant foxtail: 6
Giant foxtail; [1]
  Plant response rating, Giant foxtail: 10
Giant foxtail; [5]
  Giant foxtail plant response rating: 10
Giant foxtail; Preemergence, Rate 250 g/ha
  Giant foxtail plant response rating (0 to 10 scale): 10
Giant foxtail; [6]
  Giant foxtail plant response rating: 10
Giant foxtail; [7]
  Plant response rating, Giant foxtail: 4
morningglory; [2]
  Morningglory plant response rating: 2
morningglory; [3]
  Morningglory plant response rating: 3
morningglory; [4]
  Plant response rating, Morningglory: 4
morningglory; [1]
  Plant response rating, Morningglory: 2
morningglory; [5]
  Morningglory plant response rating: 4
morningglory; Preemergence, Rate 250 g/ha
  Morningglory plant response rating (0 to 10 scale): 0
morningglory; [6]
  Morningglory plant response rating: 0
morningglory; [7]
  Plant response rating, Morningglory: 4
pigweed; [2]
  Redroot pigweed plant response rating: 0
pigweed; [3]
  Redroot pigweed plant response rating: 2
pigweed; [4]
  Plant response rating, Redroot pigweed: 3
pigweed; [1]
  Plant response rating, Redroot pigweed: 2
pigweed; [5]
  Redroot pigweed plant response rating: 9
pigweed; Preemergence, Rate 250 g/ha
  Redroot pigweed plant response rating (0 to 10 scale): 9
pigweed; [6]
  Redroot pigweed plant response rating: 9
pigweed; [7]
  Plant response rating, Redroot pigweed: 3
rape; [2]
  Rape plant response rating: 0
rape; [3]
  Rape plant response rating: 0
rape; [4]
  Plant response rating, Rape: 2
rape; [1]
  Plant response rating, Rape: 0
rape; [5]
  Rape plant response rating: 0
rape; Preemergence, Rate 250 g/ha
  Rape plant response rating (0 to 10 scale): 4
rape; [6]
  Rape plant response rating: 7
rape; [7]
  Plant response rating, Rape: 2
soybean; [2]
  Soybean plant response rating: 4
soybean; [3]
  Soybean plant response rating: 5
soybean; [4]
  Plant response rating, Soybean: 5
soybean; [1]
  Plant response rating, Soybean: 0
soybean; [5]
  Soybean plant response rating: 0
soybean; Preemergence, Rate 250 g/ha
  Soybean plant response rating (0 to 10 scale): 0
soybean; [6]
  Soybean plant response rating: 0
soybean; [7]
  Plant response rating, Soybean: 5
Sugar beet; [2]
  Sugarbeets plant response rating: 0
Sugar beet; [3]
  Sugarbeets plant response rating: 0
Sugar beet; [4]
  Plant response rating, Sugarbeets: 0
Sugar beet; [1]
  Plant response rating, Sugarbeets: 3
Sugar beet; [5]
  Sugarbeets plant response rating: 4
Sugar beet; Preemergence, Rate 250 g/ha
  Sugarbeets plant response rating (0 to 10 scale): 7
Sugar beet; [6]
  Sugarbeets plant response rating: 9
Sugar beet; [7]
  Plant response rating, Sugarbeets: 0
velvetleaf; [2]
  Velvetleaf plant response rating: 0
velvetleaf; [3]
  Velvetleaf plant response rating: 3
velvetleaf; [4]
  Plant response rating, Velvetleaf: 4
velvetleaf; [1]
  Plant response rating, Velvetleaf: 0
velvetleaf; [5]
  Velvetleaf plant response rating: 2
velvetleaf; Preemergence, Rate 250 g/ha
  Velvetleaf plant response rating (0 to 10 scale): 2
velvetleaf; [6]
  Velvetleaf plant response rating: 5
velvetleaf; [7]
  Plant response rating, Velvetleaf: 3
wheat; [2]
  Wheat plant response rating: 0
wheat; [3]
  Wheat plant response rating: 0
wheat; [4]
  Plant response rating, Wheat: 2
wheat; [1]
  Plant response rating, Wheat: 0
wheat; [5]
  Wheat plant response rating: 0
wheat; Preemergence, Rate 250 g/ha
  Wheat plant response rating (0 to 10 scale): 0
wheat; [6]
  Wheat plant response rating: 4
wheat; [7]
  Plant response rating, Wheat: 0
Wild oat; [2]
  Wild oats plant response rating: 0
Wild oat; [3]
  Wild oats plant response rating: 0
Wild oat; [4]
  Plant response rating, Wild oats: 2
Wild oat; [1]
  Plant response rating, Wild oats: 0
Wild oat; [5]
  Wild oats plant response rating: 0
Wild oat; Preemergence, Rate 250 g/ha
  Wild oats plant response rating (0 to 10 scale): 0
Wild oat; [6]
  Wild oats plant response rating: 0
Wild oat; [7]
  Plant response rating, Wild oats: 0
Purple nutsedge; [2]
  Nutsedge plant response rating: 0
Purple nutsedge; [3]
  Nutsedge plant response rating: 0
Purple nutsedge; [4]
  Plant response rating, Nutsedge: 0
Purple nutsedge; [1]
  Plant response rating, Nutsedge: 0
Purple nutsedge; [5]
  Nutsedge plant response rating: 0
Purple nutsedge; Preemergence, Rate 250 g/ha
  Nutsedge plant response rating (0 to 10 scale): 0
Purple nutsedge; [6]
  Nutsedge plant response rating: 0
Purple nutsedge; [7]
  Plant response rating, Nutsedge: 0
